# According to patent US20210223233A1, “Mitochondrial Conductance Inhibitors and Methods of Use Thereof” (The Regents of the University of California, priority 2018, published 2021):
# Where two headings read alike, the source gives them in different places.
# What was measured:
# [1] = tested on: inner mitochondrial membrane nonselective monovalent cation conductance (NMCC); assay type: biochemical, mouse
# Description: The homogenate was centrifuged at 700 g for 5-10 min to pellet nuclei and unbroken cells. For some tissues, the first nuclear pellet was resuspended in the same solution and homogenized again to increase the yield of mitochondria. Mitochondria were collected by centrifugation of the supernatant at 8,500 g for 10 min. Mitochondria were suspended in a solution containing 140 mM sucrose, 440 mM D-mannitol, 5 mM HEPES, and 1 mM EGTA (pH adjusted to 7.2 with KOH), and then subjected to a French press at 2,000 psi to rupture the outer mitochondrial membrane (OMNI) and release the inner mitochondrial membrane (IMM) to form mitoplasts. Mitoplasts were pelleted at 10,500 g for 15 min and resuspended for storage in […] of solution containing 750 mM KCl, 100 mM HEPES and 1 mM EGTA (pH adjusted to 7.2 with KOH) to further release the IMM from the OMNI, see FIG. 1A. […] Mitochondria and mitoplasts were prepared at 0-4° C. and stored on ice for up to 5 h. Tissues were isolated from a mitochondrial calcium uniporter (MCU) knock-out mouse unless otherwise indicated.
# A glass pipette recording electrode was used to form a gigaohm seal with the IMM in a bath solution containing 150 mM KCl, 10 mM HEPES, and 1 mM EGTA, pH 7.2 (adjusted with KOH). Capacitive transients were completely compensated right after the seal was formed. The patch of the IMM attached to the glass pipette recording electrode was then ruptured by high-amplitude voltage pulses (200-500 mV).
# Currents were recorded using an Axopatch 200B amplifier (Molecular Devices). The current was dropped to −160 mV and then ramped up for 850 mS to +80 mV. All voltages indicated correspond to the mitochondrial matrix in respect to the bath (cytosol). Mitoplast conductance was normalized to the membrane capacitance (Cm) in all tissues examined. Current amplitudes for histograms were measured within 5 mS after stepping the membrane from 0 to −160 mV and were normalized to the total current. Whole-mitoplast control currents were recorded in a bath solution containing 150 mM HEPES, 1.5 mM EGTA, pH 7.0 adjusted with Tris base, osmolarity to 300 mmol/kg with sucrose.
# For the assay, the pipette solution contained 110 mM Na-gluconate, 5 mM EGTA, 40 mM HEPES, 5 mM EDTA, and 1 mM NaCl and was tonicity adjusted to ˜350-370 mmol/kg with sucrose and pH adjusted to pH 7 with 1 M NaOH. The control bath solution contained 110 mM Na-gluconate, and 40 mM HEPES and was pH adjusted to pH 7 with 1 M NaOH. When assaying for the effect Ca^2+, 5 mM CaCl2) was added to the described bath solution.
# For the DCCD assay, mitoplasts were prepared from wild-type C56BL/6 mice. The pipette solution contained 150 mM tetramethylammonium (TMA) hydroxide, 1.5 mM EGTA, 2 mM MgCl2, and 150 mM HEPES, was tonicity adjusted to ˜450 mmol/kg with sucrose and pH adjusted to pH 7 with D Gluconic Acid, and the bath solution contained 150 mM KCl, 1.5 mM EGTA, and 40 mM HEPES, and was pH adjusted to pH 7.2 with 1 M KOH. When assaying for DCCD effect, 10 μM DCCD was added to the described bath solution. […],
# When assaying for inhibitor effect, […] or 5 μM CATR was added to the described bath solution.
# For the Na^+ assays, the pipette solution contained 110 mM Na-gluconate, 5 mM EGTA, 40 mM HEPES, 5 mM EDTA, and 1 mM NaCl and was tonicity adjusted to ˜350-370 mmol/kg with sucrose and pH adjusted to pH 7 with 1 M NaOH. The bath solution contained 110 mM Na-gluconate, 5 mM EGTA, 40 mM HEPES, and 5 mM EDTA and was pH adjusted to pH 7 with 1 M NaOH.
# [2] = log octanol/water partition coefficient; source not stated; cited from earlier work
# [3] = 10 μM antimycin in bath, 125 mM K-gluconate, pH 7
compound,measurement,setting,value
"N/C(=N\C(=O)c1nc(Cl)c(NCc2ccc(I)cc2)nc1N)NCCCCc1ccccc1 [5m, (E)-3-amino-N-(amino((4-phenylbutyl)amino)methylene)-6-chloro-5-((4-iodobenzyl)amino)pyrazine-2-carboxamide]",effect on monovalent cation conductance,"[1]; 1 μM 5m in bath, 125 mM K-gluconate, pH 7",almost completely inhibited
"CCCCCCCCN/C(N)=N/C(=O)c1nc(Cl)c(NCc2ccc(I)cc2)nc1N [5o, (E)-3-amino-N-(amino(octylamino)methylene)-6-chloro-5-((4-iodobenzyl)amino)pyrazine-2-carboxamide]",effect on monovalent cation conductance,"[1]; 1 μM 5o in bath, 125 mM K-gluconate, pH 7",almost completely inhibited
"CN(CCCCCCc1ccccc1)CCCCNC(=O)c1nc(Cl)c(NCc2ccc(Cl)cc2)nc1N [AA6, 3-amino-6-chloro-5-((4-chlorobenzyl)amino)-N-(4-(methyl(6-phenylhexyl)amino)butyl)pyrazine-2-carboxamide]",effect on monovalent cation conductance,"[1]; 200 nM AA6 in bath, 125 mM K-gluconate, pH 7",almost completely inhibited
"CCCCC/C=C\C/C=C\C/C=C\C/C=C\CCCC(=O)O [AA, arachidonic acid]",effect on monovalent cation conductance,"[1]; […] AA in bath, 125 mM K-gluconate, pH 7",little to no effect
"C=C1[C@@H]2CC[C@H]3[C@]4(C)C[C@H](O[C@@H]5O[C@H](CO)[C@@H](OS(=O)(=O)O)[C@H](OS(=O)(=O)O)[C@H]5OC(=O)CC(C)C)CC(C(=O)O)(C(=O)O)[C@H]4CC[C@]3(C2)[C@H]1O [CATR, carboxyatractyloside]",effect on monovalent cation conductance,"[1]; 5 μM CATR in bath, 125 mM K-gluconate, pH 7",little to no effect
"[Ca+2].[Cl-].[Cl-] [Ca^2+, CaCl2]",effect on monovalent cation conductance,"[1]; 5 mM CaCl2 added to bath, 110 mM Na-gluconate, no chelator in bath, pH 7",inhibited
"C(=NC1CCCCC1)=NC1CCCCC1 [DCCD, dicyclohexylcarbodiimide]",effect on monovalent cation conductance,"[1]; 10 μM DCCD in bath, 150 mM KCl bath, TMA pipette, mitoplasts from wild-type C56BL/6 mice",little to no effect
"CCN(c1nc(N)c(C(=O)NC(=N)N)nc1Cl)C(C)C [EIPA, 5-(N-ethyl-N-isopropyl)amiloride]",Concentration,[1],80 µM
same,effect on monovalent cation conductance,"[1]; K+ assay (110 mM K-gluconate, pH 7), 80 μM EIPA in bath",significantly and almost completely inhibited
same,effect on monovalent cation conductance,"[1]; Na+ assay (110 mM Na-gluconate, pH 7), 100 μM EIPA in bath",significantly and almost completely inhibited
"C[n+]1ccc(-c2ccccc2)cc1 [MPP+, 1-methyl-4-phenylpyridinium]",effect on monovalent cation conductance,"[1]; 0.5 mM MPP+ in bath, 125 mM K-gluconate, pH 7",little to no effect
CN(C)C(=N)NC(=N)N [Metformin],Concentration,[1],30000 µM
same,effect on monovalent cation conductance,[1]; pH 7,almost completely inhibited
[H]/N=C(/N)N/C(=N/[H])NCCc1ccccc1 [Phenformin],Concentration,[1],2000 µM
same,effect on monovalent cation conductance,"[1]; 1 mM phenformin in bath, 125 mM K-gluconate, pH 7",almost completely inhibited
same,logP,[2],−0.83
[H]/N=C(\N/C(=N/[H])Nc1ccc(Cl)cc1)NC(C)C [Proguanil],Concentration,[1],100 µM
same,effect on monovalent cation conductance,"[1]; 100 μM proguanil in bath, 125 mM K-gluconate, pH 7",almost completely inhibited
same,logP,[2],2.53
"C=C(C)[C@H]1Cc2c(ccc3c2O[C@@H]2COc4cc(OC)c(OC)cc4[C@@H]2C3=O)O1 [Rotenone, rotenone]",effect on monovalent cation conductance,"[1]; 10 μM rotenone in bath, 110 mM Na-gluconate, pH 7",little to no effect
N/C(=N\C(=O)c1nc(Cl)c(N)nc1N)NCc1ccccc1 [benzamil],effect on monovalent cation conductance,"[1]; 10 μM benzamil in bath, 125 mM K-gluconate, pH 8",little to no effect
CC(C)(C)c1ccc(CCOc2ncnc3ccccc23)cc1 [fenazaquin],effect on monovalent cation conductance,"[1]; 10 μM fenazaquin in bath, 110 mM Na-gluconate, pH 7",little to no effect
Cc1nn(C)c(Oc2ccccc2)c1/C=N/OCc1ccc(C(=O)OC(C)(C)C)cc1 [fenipiroximate],effect on monovalent cation conductance,"[1]; 0.5 μM fenipiroximate in bath, 125 mM K-gluconate, pH 7",little to no effect
CO/C(=C/C(N)=O)[C@H](C)[C@H](/C=C/c1csc(-c2csc([C@@H](C)/C=C/C=C/C(C)C)n2)n1)OC [myxothiazol],effect on monovalent cation conductance,"[1]; 10 μM myxothiazol in bath, 125 mM K-gluconate, pH 7",little to no effect
CC[C@H]1/C=C/C=C/C[C@@H](C)[C@H](O)[C@@](C)(O)C(=O)[C@@H](C)[C@H](O)[C@@H](C)C(=O)[C@@H](C)[C@H](O)[C@@H](C)/C=C/C(=O)O[C@@H]2[C@H](C)[C@H](CC1)O[C@]1(CC[C@H](C)[C@H](C[C@@H](C)O)O1)[C@H]2C [oligomycin],effect on monovalent cation conductance,"[1]; 10 oligomycin (unit not given) in bath, 125 mM K-gluconate, pH 7",little to no effect
C/C=C(\C)[C@H](O)[C@H](C)/C=C(C)/C=C/C/C(C)=C/Cc1nc(OC)c(OC)c(O)c1C [piericidin],effect on monovalent cation conductance,"[1]; 1 μM piericidin in bath, 110 mM K-gluconate, pH 7",little to no effect
CCCCCCCCCCC(O)C1CCC(C2CCC(C(O)CCCCCCCCCCC(O)CC3=CC(C)OC3=O)O2)O1 (stereo not drawn) [rolliniastatin],effect on monovalent cation conductance,"[1]; 2 μM rolliniastatin in bath, 125 mM K-gluconate, pH 7",little to no effect
C/C=C(C)/C=C/C=C/[C@H](OC)[C@@H](C)[C@@H](OC)[C@@H](C)CCc1oc2c(O)c(OC)cc(OC)c2c(=O)c1C [stigmatellin],effect on monovalent cation conductance,"[1]; 0.5 μM stigmatellin in bath, 125 mM K-gluconate, pH 7",little to no effect
Tertiapin Q [TQ],effect on monovalent cation conductance,"[1]; 0.5 μM TQ in bath, 125 mM K-gluconate, pH 7",little to no effect
antimycin,effect on monovalent cation conductance,[1]; [3],little to no effect
same,uncoupling H+ current overlapping with the K+ current,[1]; [3],elicited an uncoupling H^+ current
atpenin,effect on monovalent cation conductance,"[1]; 0.2 μM or 1 μM atpenin in bath, 125 mM K-gluconate, pH 7",little to no effect
bullatacin,effect on monovalent cation conductance,"[1]; 1 μM bullatacin in bath, 125 mM K-gluconate, pH 7",little to no effect
